Source: patent US11813274B2, “Treating untreated or treatment-resistant diabetes with glucokinase activator and sodium-glucose cotransporter-2 inhibitor” (HUA Medicine (Shanghai) Ltd., priority 2020, dated 2023)

Assays:
[1] = in vivo
Method: This phase I study accessed the pharmacokinetic interaction between dorzagliatin and empagliflozin in T2DM subjects.
Sixteen eligible subjects were enrolled and 15 of them completed the study.
All subjects received: (i) empagliflozin (25 mg, QD) on Days 1-5; and empagliflozin was taken 60 min prior to meals (except on Day 5, when it was administered 30 min before glucose intake); (ii) empagliflozin (25 mg, QD) and dorzagliatin (75 mg, BID) on Days 6-10 (only the morning dose on Day 10); and empagliflozin and dorzagliatin were taken 60 min prior to meals (except on Day 10, when they were administered 30 min before glucose intake); or (iii) dorzagliatin 75 mg BID on Days 11-15 (only the morning dose on Day 15); and dorzagliatin was taken 60 min prior to meals (except on Day 15, when it was administered 30 min before glucose intake).
Blood samples for the determination of dorzagliatin and empagliflozin concentrations and corresponding pharmacokinetic (PK) analysis were collected at the following time points on Days 5, 10 and 15: pre-dose (within 30 min prior to drug dosing) and at 0.25, 0.5, 1, 1.5, 2, 3, 4, 6, 8, 10, 12, 18 and 24 h post-dose. […]
The plasma concentration-time data for dorzagliatin and empagliflozin were analyzed using non-compartmental methods to calculate PK parameters.

[2] = tested on: subjects with Type-2 Diabetes Mellitus (T2DM); assay: Oral glucose tolerance test (OGTT): serum C-peptide pharmacodynamic response; assay type: in vivo, human; settings: baseline corrected, after 75-gram OGTT, Days 5, 10, 15
Method: (§1) On Days 5, 10 and 15, a 75-gram glucose solution (oral glucose tolerance test, OGTT) was administered 30 min post-drug administration. No breakfast was provided.
(§2) Pharmacodynamic (PD) responses, i.e., serum levels of glucose, insulin and C-peptide and plasma levels of glucagon, were evaluated on Days 5, 10 and 15: pre-dose (within 60 min prior to glucose intake) and at 0.5, 1, 1.5, 2, 2.5, 3 and 4 h post-glucose intake. Urine was collected for urinary glucose excretion on Days 5, 10 and 15: pre-dose (for bladder emptying only, no pre-dose glucose measurement), and over a series of intervals (0-2 h, 2-4 h, 4-6 h, 6-8 h, 8-12 h and 12-24 h post-dose).

[3] = tested on: subjects with Type-2 Diabetes Mellitus (T2DM); assay: Oral glucose tolerance test (OGTT): serum glucose pharmacodynamic response; assay type: in vivo, human; settings: baseline corrected, after 75-gram OGTT 30 min post-dose, Days 5, 10, 15
Method: as §1, §2

Row | SMILES | effect of empagliflozin on dorzagliatin PK parameters (drug-drug interaction) [1] | C-peptide response AUEC0-4 h, mean [2] | C-peptide response CEav, mean [2] | C-peptide response CEmax, mean [2] | Glucose response AUEC0-4 h, mean [3] | Glucose response CEav, mean [3] | Glucose response CEmax, mean [3] | effect of dorzagliatin on empagliflozin PK parameters (drug-drug interaction) [1]
1 | OC[C@H]1O[C@@H](c2ccc(Cl)c(Cc3ccc(OC4CCOC4)cc3)c2)[C@H](O)[C@@H](O)[C@@H]1O (stereo in doubt) [Empagliflozin, (2S,3R,4R,5S,6R)-2-[4-chloro-3({4-[(3S)-oxolan-3-yloxy]phenyl}methyl)phenyl]-6-(hydroxymethyl)oxane-3,4,5-triol] | did not have a significant effect on dorzagliatin PK parameters | 11 ng·h/mL | 2.7 ng/mL | 4.7 ng/mL | 452 mg·h/dL | 113 mg/dL | 199 mg/dL | 
2 | CC(C)C[C@@H](C(=O)Nc1ccn(C[C@@H](O)CO)n1)N1CC(Oc2ccccc2Cl)=CC1=O [Dorzagliatin, (S)-2-(4-(2-chlorophenoxy)-2-oxo-2,5-dihydro-1H-pyrrol-1-yl)-N-(1-((R)-2,3-dihydroxypropyl)-1H-pyrazol-3-yl)-4-methylpentanamide] |  | 13 ng·h/mL | 3.2 ng/mL | 5.5 ng/mL | 364 mg·h/dL | 91 mg/dL | 163 mg/dL | did not have a significant effect on empagliflozin PK parameters
